Key:
PRKDC (human) = PRKDC (human) (UniProt P78527)
CDK10 (human) = CDK10 (human) (UniProt Q15131)
ATM (human) = ATM (human) (UniProt Q13315)
SGK223 (human) = SGK223 (human) (UniProt Q86YV5)
ARAF (human) = ARAF (human) (UniProt P10398)
TESK2 (human) = TESK2 (human) (UniProt Q96S53)
LRRK2 (human) = LRRK2 (human) (UniProt Q5S007)
CDKL2 (human) = CDKL2 (human) (UniProt Q92772)
PIK3C2B (human) = PIK3C2B (human) (UniProt O00750)

Chain of ATM (human) (Q13315 whole entry, looked up): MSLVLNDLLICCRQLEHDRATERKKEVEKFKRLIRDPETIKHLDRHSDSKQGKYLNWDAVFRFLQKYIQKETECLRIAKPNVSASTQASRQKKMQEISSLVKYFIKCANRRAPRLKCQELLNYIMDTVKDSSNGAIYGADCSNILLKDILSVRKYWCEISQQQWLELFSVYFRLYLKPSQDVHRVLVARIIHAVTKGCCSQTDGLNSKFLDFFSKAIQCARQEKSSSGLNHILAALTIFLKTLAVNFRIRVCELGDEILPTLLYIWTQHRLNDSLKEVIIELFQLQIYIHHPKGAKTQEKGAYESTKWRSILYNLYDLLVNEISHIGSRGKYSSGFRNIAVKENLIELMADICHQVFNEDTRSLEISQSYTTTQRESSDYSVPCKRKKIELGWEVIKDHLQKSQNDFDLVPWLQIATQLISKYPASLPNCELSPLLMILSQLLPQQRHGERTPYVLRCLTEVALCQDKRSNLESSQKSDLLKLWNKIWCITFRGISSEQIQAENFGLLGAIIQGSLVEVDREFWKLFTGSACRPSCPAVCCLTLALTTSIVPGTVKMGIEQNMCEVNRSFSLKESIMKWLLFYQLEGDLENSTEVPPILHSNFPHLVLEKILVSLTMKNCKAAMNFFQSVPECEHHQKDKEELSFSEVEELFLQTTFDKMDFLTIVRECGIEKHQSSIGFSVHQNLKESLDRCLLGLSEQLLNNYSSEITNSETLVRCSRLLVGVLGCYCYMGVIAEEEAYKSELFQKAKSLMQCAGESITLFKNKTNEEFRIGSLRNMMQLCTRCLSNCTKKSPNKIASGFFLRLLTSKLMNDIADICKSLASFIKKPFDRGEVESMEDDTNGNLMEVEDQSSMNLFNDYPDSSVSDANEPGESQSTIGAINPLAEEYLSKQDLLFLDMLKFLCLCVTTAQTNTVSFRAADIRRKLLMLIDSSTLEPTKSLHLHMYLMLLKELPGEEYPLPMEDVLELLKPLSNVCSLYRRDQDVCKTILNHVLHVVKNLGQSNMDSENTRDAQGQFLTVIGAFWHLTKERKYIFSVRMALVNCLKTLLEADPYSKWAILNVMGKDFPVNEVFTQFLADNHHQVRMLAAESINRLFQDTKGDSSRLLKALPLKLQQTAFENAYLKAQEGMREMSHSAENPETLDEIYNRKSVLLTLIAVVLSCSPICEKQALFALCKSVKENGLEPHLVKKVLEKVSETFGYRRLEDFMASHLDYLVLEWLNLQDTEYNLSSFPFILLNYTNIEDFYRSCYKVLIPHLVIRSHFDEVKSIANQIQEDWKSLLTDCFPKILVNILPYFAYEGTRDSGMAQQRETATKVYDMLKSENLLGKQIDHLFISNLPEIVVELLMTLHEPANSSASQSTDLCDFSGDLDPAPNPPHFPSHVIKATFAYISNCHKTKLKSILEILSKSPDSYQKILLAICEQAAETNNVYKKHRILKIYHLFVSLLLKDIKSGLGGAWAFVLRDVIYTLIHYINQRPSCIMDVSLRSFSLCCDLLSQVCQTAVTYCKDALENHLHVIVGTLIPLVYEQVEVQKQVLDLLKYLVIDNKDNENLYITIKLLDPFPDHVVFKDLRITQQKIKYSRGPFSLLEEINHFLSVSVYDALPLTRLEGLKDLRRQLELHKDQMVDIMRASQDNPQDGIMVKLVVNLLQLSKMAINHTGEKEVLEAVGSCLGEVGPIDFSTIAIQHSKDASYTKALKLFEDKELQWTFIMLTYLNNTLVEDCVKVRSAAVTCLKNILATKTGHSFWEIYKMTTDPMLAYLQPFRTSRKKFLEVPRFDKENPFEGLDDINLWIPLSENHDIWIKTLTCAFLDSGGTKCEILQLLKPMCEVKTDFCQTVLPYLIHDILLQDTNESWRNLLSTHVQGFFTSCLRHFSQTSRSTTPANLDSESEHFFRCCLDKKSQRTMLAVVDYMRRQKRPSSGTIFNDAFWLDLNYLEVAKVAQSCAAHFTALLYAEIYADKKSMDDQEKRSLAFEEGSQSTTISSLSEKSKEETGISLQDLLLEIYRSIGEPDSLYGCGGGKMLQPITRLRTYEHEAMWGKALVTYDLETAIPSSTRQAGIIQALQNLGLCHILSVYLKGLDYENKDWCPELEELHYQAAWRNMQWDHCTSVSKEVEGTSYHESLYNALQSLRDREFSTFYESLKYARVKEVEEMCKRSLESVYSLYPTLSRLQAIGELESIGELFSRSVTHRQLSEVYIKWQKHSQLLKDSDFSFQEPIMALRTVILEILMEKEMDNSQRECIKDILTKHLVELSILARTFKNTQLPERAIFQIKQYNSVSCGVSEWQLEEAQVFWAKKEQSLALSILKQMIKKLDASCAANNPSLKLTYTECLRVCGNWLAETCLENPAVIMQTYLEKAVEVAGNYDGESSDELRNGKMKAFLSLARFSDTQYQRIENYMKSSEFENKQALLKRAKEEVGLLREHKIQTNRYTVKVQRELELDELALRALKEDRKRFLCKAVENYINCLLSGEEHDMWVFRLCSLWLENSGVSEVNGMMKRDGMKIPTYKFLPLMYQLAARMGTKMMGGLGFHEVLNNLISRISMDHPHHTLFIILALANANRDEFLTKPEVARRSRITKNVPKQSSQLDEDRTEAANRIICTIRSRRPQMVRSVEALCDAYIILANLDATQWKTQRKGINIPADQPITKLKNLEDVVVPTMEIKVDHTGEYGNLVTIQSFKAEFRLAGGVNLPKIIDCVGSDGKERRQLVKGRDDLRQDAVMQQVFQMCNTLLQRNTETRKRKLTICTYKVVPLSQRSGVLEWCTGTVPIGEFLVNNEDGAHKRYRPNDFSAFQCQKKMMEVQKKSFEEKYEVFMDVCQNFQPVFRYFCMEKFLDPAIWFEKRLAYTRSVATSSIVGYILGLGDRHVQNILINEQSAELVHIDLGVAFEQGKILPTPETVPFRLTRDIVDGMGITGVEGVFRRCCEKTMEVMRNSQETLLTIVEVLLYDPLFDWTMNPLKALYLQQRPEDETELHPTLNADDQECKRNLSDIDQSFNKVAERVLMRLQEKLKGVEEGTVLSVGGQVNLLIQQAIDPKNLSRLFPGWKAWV
Chain of SGK223 (human) (Q86YV5 whole entry, looked up): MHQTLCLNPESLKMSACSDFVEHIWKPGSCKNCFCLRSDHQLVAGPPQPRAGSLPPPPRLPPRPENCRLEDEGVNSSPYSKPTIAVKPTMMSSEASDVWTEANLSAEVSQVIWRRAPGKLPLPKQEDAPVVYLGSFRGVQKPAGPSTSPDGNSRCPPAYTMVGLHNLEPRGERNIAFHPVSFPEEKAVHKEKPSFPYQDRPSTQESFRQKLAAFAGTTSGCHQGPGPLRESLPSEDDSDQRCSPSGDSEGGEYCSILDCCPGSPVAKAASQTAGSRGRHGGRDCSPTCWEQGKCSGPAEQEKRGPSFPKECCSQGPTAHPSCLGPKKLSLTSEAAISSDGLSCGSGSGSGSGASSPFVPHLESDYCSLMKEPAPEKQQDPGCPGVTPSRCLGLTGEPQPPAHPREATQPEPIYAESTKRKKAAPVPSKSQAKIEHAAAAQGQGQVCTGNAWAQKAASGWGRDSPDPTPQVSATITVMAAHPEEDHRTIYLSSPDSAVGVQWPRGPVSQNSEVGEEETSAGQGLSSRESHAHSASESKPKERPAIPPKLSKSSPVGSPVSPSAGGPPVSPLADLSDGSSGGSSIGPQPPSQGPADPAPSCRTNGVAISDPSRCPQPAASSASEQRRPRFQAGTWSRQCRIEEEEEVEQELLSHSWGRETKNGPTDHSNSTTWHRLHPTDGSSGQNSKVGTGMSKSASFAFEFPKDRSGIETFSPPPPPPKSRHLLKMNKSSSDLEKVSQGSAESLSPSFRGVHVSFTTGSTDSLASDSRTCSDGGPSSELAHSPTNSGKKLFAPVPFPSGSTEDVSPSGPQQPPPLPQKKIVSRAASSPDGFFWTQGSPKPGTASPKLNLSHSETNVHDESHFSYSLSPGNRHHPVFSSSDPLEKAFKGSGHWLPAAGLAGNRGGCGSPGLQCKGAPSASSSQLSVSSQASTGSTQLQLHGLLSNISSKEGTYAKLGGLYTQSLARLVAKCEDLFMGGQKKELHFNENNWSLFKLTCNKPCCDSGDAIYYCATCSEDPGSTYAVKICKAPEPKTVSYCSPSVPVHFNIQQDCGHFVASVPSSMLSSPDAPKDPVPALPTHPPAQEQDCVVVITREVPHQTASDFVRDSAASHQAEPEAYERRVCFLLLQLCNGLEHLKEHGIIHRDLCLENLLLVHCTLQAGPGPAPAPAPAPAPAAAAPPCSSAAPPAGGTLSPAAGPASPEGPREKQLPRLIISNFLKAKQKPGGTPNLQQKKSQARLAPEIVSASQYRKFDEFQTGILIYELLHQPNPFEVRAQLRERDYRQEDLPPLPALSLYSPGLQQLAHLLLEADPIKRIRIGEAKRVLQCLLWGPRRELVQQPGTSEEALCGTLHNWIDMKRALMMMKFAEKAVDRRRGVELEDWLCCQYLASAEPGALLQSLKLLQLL
Chain of CDK10 (human) (Q15131 whole entry, looked up): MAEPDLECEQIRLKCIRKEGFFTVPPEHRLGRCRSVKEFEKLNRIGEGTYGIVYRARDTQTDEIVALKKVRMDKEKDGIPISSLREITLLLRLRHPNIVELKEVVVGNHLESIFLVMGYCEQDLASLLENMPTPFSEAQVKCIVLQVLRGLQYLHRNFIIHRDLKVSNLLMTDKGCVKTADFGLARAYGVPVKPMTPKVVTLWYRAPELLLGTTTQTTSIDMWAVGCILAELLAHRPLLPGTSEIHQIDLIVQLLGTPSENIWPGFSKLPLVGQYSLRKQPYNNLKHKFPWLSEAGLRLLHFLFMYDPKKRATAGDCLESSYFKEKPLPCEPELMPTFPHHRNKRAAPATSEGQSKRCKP

CN[C@@H]1C[C@H]2O[C@@](C)([C@@H]1OC)n1c3ccccc3c3c4c(c5c6ccccc6n2c5c31)C(=O)NC4 was tested, and the IC50 (PRKDC (human)) was > 10 µM, the IC50 (CDK10 (human)) was 0.87 µM and the IC50 (ATM (human)) was > 10 µM. For the same compound, the IC50 (SGK223 (human)) was 5.05 µM and the IC50 (ARAF (human)) was > 10 µM.
In the case of CC(C)(C)c1cnc(CSc2cnc(NC(=O)C3CCNCC3)s2)o1, the IC50 (PRKDC (human)) is reported as > 10 µM, the IC50 (ATM (human)) is reported as > 10 µM and the IC50 (TESK2 (human)) is reported as > 10 µM.
In the case of CC[C@@H](CO)Nc1nc(NCc2ccccc2)c2ncn(C(C)C)c2n1, the IC50 (PRKDC (human)) is reported as > 10 µM, the IC50 (LRRK2 (human)) is reported as > 10 µM and the IC50 (CDKL2 (human)) is reported as > 10 µM. For the same compound, the IC50 (ATM (human)) was > 10 µM, the IC50 (PIK3C2B (human)) was > 10 µM and the IC50 (SGK223 (human)) was > 10 µM.

Source: the kinase profiling compilation of Christmann-Franck et al. (2016)
